Source: ChEMBL document CHEMBL3763051, “Inhibition of phosphatidylinositol-3,4,5-trisphosphate binding to the AKT pleckstrin homology domain by 4-amino-1,2,5-oxadiazole derivatives” (Medchemcomm, 2015)
Calls of active or inactive are those of the source. The calls are words filed in the database; no cut-off is given here.

Key:
[1] = biological target: T1, RAC-alpha serine/threonine-protein kinase (Homo sapiens, UniProt P31749); experiment: Antagonist activity at human AKT1-PH domain (1 to 121 residues) assessed as reduction of AKT1-PH interaction with PC/PE/PS/PI(3,4,5)P3 at 50 uM after 30 mins by competitive SPR analysis relative to control
[2] = biological target: T2, Cytohesin-3 (Mus musculus) (UniProt O08967); experiment: Antagonist activity at mouse GRP1-PH domain (1 to 127 residues) assessed as reduction in PI(3,4,5)P3/GRP1-PH interaction at 50 uM after 30 mins by competitive SPR analysis relative to control
T2 sequence (whole entry): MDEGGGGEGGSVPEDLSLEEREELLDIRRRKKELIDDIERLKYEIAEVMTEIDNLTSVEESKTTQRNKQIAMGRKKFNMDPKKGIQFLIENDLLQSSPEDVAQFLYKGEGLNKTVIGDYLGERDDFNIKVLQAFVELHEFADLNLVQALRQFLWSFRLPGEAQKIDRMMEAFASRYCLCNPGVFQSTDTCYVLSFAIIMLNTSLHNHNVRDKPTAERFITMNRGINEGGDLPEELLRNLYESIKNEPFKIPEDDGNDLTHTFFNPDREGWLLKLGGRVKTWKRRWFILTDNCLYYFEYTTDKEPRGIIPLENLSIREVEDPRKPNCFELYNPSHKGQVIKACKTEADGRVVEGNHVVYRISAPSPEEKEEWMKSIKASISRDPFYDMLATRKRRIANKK

[3] = biological target: T3, Tyrosine-protein kinase BTK (Homo sapiens, UniProt Q06187); experiment: Antagonist activity at human BTK-PH domain (2 to 170 residues) assessed as reduction in PI(3,4,5)P3/BTK-PH interaction at 50 uM after 30 mins by competitive SPR analysis relative to control
[4] = biological target: T1, RAC-alpha serine/threonine-protein kinase; experiment: Antagonist activity at human AKT1-PH domain (1 to 121 residues) assessed as reduction of AKT1-PH interaction with PC/PE/PS/PI(3,4,5)P3 after 30 mins by competitive SPR analysis
[5] = biological target: T4, Cytohesin-3 (Mus musculus, UniProt O08967); experiment: Antagonist activity at mouse GRP1-PH domain (1 to 127 residues) assessed as reduction in PI(3,4,5)P3/GRP1-PH interaction after 30 mins by competitive SPR analysis
T4 sequence (O08967 whole entry): T2 sequence (whole entry)

[6] = biological target: T3, Tyrosine-protein kinase BTK; experiment: Antagonist activity at human BTK-PH domain (2 to 170 residues) assessed as reduction in PI(3,4,5)P3/BTK-PH interaction after 30 mins by competitive SPR analysis
[7] = Cytotoxicity against human MDA-MB-231 cells assessed as inhibition of cell proliferation at 1 to 100 uM after 48 hrs by MTT assay; assay type: cell-based; settings: read-out: %max
[8] = Effect on membrane fluidity in PC/PE/PS liposome assessed as DPH probe anisotropy changes at 15 uM incubated for 30 mins by fluorescence anisotropic analysis; assay type: ADME; settings: artificial membrane, 0.5 h
[9] = Effect on membrane fluidity in PC/PE/PS liposome assessed as NBD-PE probe anisotropy changes at 15 uM incubated for 30 mins by fluorescence anisotropic analysis; assay type: ADME; settings: artificial membrane, 0.5 h
[10] = biological target: Pleckstrin homology domain-containing family A member 1 (Homo sapiens, UniProt Q9HB21); experiment: Antagonist activity at human Tapp1-PH domain (180 to 305 residues) assessed as reduction in PI(3,4)P2/Tapp1-PH interaction after 30 mins by competitive SPR analysis
[11] = biological target: T1, RAC-alpha serine/threonine-protein kinase; experiment: Antagonist activity at human AKT1-PH domain (1 to 121 residues) assessed as reduction in PI(3,4,5)P3/AKT1-PH interaction by FRET analysis
[12] = biological target: T1, RAC-alpha serine/threonine-protein kinase; experiment: Antagonist activity at GST-tagged human AKT1-PH domain (1 to 121 residues) assessed as reduction in PC/PE/PS/PI(3,4,5)P3/AKT1-PH interaction at 50 uM by liposome pull-down assay
[13] = Cytotoxicity against human MDA-MB-231 cells assessed as inhibition of cell proliferation at 100 uM after 48 hrs by MTT assay; assay type: cell-based
[14] = Effect on surface charge of PC/PE/PS/PI(3,4,5)P3 liposome by measuring zeta-potential by light scattering spectrometric analysis; assay type: physicochemical; settings: artificial membrane
[15] = biological target: T1, RAC-alpha serine/threonine-protein kinase; experiment: Induction of human AKT1-PH aggregration assessed as mean hydrodynamic diameter after 10 mins dynamic light scattering assay
[16] = biological target: T1, RAC-alpha serine/threonine-protein kinase; experiment: Binding affinity to human AKT1-PH domain assessed as change in beta-sheet content at 1:3 molar ratio of protein to compound by CD spectra analysis
[17] = biological target: T1, RAC-alpha serine/threonine-protein kinase; experiment: Binding affinity to human AKT1-PH domain assessed as enthalpy change by isothermal titration calorimetric analysis
[18] = biological target: T1, RAC-alpha serine/threonine-protein kinase; experiment: Binding affinity to human AKT1-PH domain assessed as entropy change by isothermal titration calorimetric analysis
[19] = biological target: T5, 1-phosphatidylinositol 4,5-bisphosphate phosphodiesterase delta-1 (Rattus norvegicus, UniProt P10688); experiment: Antagonist activity at rat PLCdelta1-PH domain assessed as reduction in PI(4,5)P2/PLCdelta1-PH interaction after 30 mins by competitive SPR analysis
T5 sequence (P10688 whole entry): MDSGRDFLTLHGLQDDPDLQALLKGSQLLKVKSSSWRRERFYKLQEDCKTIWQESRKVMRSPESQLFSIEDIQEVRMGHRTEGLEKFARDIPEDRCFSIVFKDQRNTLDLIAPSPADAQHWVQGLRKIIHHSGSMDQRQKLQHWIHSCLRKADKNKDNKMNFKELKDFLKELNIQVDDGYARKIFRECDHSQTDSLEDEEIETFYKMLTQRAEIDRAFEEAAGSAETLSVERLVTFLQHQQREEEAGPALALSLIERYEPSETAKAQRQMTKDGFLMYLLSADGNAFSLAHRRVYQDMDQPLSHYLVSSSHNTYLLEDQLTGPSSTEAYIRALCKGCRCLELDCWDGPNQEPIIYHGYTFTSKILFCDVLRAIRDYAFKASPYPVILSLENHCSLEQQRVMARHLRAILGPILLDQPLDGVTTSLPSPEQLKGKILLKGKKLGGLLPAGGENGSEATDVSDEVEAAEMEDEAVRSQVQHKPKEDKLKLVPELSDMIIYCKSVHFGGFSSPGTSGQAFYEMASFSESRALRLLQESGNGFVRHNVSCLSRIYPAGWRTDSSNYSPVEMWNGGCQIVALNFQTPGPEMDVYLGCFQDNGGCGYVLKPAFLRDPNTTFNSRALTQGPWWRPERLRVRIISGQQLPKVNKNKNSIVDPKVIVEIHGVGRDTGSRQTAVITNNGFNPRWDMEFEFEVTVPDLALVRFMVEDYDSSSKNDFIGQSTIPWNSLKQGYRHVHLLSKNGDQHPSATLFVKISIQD

[20] = biological target: T1, RAC-alpha serine/threonine-protein kinase; experiment: Inhibition of AKT1 phosphorylation at Thr-308 in human MDA-MB-231 cells at 25 uM after 48 hrs by immunoblot analysis; assay type: cell-based

T3 sequence (Q06187 whole entry, the tested form may be a part): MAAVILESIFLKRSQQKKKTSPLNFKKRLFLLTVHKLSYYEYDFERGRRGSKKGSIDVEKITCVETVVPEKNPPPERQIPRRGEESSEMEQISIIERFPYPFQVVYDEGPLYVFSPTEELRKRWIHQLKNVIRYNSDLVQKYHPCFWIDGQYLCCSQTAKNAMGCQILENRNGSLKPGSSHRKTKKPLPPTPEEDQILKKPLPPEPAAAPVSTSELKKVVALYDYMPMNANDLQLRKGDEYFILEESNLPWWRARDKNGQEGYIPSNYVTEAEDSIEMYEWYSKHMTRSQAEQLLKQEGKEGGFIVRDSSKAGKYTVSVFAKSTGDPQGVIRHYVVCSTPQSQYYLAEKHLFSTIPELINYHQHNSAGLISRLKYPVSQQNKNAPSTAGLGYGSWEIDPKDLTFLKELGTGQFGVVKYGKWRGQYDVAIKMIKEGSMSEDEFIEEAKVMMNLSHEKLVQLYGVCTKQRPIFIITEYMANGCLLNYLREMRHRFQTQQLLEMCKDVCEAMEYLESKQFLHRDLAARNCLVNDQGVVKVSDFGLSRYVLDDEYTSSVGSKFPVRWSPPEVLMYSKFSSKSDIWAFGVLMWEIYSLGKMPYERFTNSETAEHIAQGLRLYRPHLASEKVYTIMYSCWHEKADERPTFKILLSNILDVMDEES
T1 sequence (P31749 whole entry, the tested form may be a part): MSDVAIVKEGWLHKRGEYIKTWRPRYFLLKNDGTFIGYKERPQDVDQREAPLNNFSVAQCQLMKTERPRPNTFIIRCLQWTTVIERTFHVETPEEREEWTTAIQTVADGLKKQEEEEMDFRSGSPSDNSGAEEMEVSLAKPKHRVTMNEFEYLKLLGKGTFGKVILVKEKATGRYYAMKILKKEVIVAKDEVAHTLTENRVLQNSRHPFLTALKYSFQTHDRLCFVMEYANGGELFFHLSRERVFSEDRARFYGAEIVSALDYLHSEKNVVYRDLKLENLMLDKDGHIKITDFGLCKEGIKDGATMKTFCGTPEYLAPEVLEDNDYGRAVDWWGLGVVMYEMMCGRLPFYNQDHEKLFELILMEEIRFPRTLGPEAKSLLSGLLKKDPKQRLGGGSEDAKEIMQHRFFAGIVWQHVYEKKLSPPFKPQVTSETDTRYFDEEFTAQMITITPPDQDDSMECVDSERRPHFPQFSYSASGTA
Sequence of Pleckstrin homology domain-containing family A member 1 (Q9HB21 whole entry, the tested form may be a part): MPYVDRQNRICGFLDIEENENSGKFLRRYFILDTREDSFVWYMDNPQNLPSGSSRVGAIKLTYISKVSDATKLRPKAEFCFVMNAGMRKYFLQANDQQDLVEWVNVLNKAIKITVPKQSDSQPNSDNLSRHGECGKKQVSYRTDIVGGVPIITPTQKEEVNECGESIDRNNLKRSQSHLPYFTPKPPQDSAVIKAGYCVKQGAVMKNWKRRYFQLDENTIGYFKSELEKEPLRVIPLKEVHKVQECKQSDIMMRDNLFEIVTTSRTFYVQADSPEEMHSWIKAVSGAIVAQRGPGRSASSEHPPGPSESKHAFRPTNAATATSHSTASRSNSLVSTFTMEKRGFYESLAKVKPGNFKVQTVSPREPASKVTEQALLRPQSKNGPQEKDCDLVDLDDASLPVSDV

N=C(N/C(=N/O)c1nonc1N)c1ccccc1N
inhibition [1]: 74%
inhibition [2]: 59%
inhibition [3]: 79%
IC50 [4]: 8.61 µM
IC50 [5]: 16.6 µM
IC50 [6]: 3.18 µM
Emax at 48 h [7]: 20%
Activity [8]: Not Active
Activity [9]: Active

N=C(N)NC(=N)N/C(=N/O)c1nonc1N
inhibition [1]: 95%
inhibition [2]: 56%
inhibition [3]: 40%
IC50 [4]: 1.85 µM
inhibition [4]: Dose-dependent effect
IC50 [5]: 24.9 µM
IC50 [6]: 10.9 µM
IC50 [10]: 28 µM
inhibition [11]: Dose-dependent effect
inhibition [12]: Active
inhibition at 48 h, 100 µM [13]: 10%
Activity [8]: Not Active
Activity [9]: Active
Activity [14]: Not Active
Activity [15]: 190 nm
Activity [16]: Active
Activity [17]: Active
Activity [18]: Active
IC50 [19]: 54 µM

N=C(N/C(=N/O)c1nonc1N)c1ccccc1
inhibition [1]: 54%
inhibition [2]: 55%
IC50 [4]: 7.19 µM
IC50 [5]: 11.5 µM
Emax at 48 h [7]: 20%
Activity [8]: Not Active
Activity [9]: Active

N=C(N/C(=N/O)c1nonc1N)N1CCCN=C1N
inhibition [1]: 92%
inhibition [2]: 67%
inhibition [3]: 11%
IC50 [4]: 3.23 µM
inhibition [4]: Dose-dependent effect
IC50 [5]: 11.5 µM
IC50 [6]: 46.5 µM
IC50 [10]: 5 µM
inhibition [11]: Dose-dependent effect
inhibition [12]: Active
Emax at 48 h [7]: 20%
inhibition [20]: Active
Activity [8]: Not Active
Activity [9]: Active
Activity [14]: Not Active
Activity [15]: 190 nm
Activity [16]: Active
Activity [17]: Active
Activity [18]: Active
IC50 [19]: 28 µM

N=C(N/C(=N/O)c1nonc1N)c1ccccc1Br
inhibition [1]: 80%
IC50 [4]: 16.4 µM
Emax at 48 h [7]: 20%
Activity [8]: Not Active
Activity [9]: Active
